This note sets out measurements from ChEMBL document CHEMBL1153274, “Microwave-assisted synthesis of N-substituted cyclic imides and their evaluation for anticancer and anti-inflammatory activities” (2009).

Each structure is given as a SMILES string.

Format in all cases: functional
For experiment [1], the system named is SK-N-SH. Briefly: Cytotoxicity against human SK-N-SH cells after 48 hrs by SRB assay. For orientation: Sulforhodamine B stains cellular protein and so reports cell mass.
Experiment [2] deals with HEp-2. Briefly: Cytotoxicity against human Hep2 cells after 48 hrs by SRB assay.
Experiment [3] relates to COLO 205. In words: Cytotoxicity against human COLO205 cells after 48 hrs by SRB assay.
Experiment [4] has as its system SW-620. Briefly: Cytotoxicity against human SW620 cells after 48 hrs by SRB assay.
In experiment [5] the test system is Rattus norvegicus. In words: Antiinflammatory activity against carrageenan-induced paw edema in albino rat at 50 mg/kg, po administered 30 mins before carrageenan challenge measured after 1 to 3 hrs. A general note: Carrageenan injected into the paw causes an acute inflammation.
Experiment [6] has as its system Rattus norvegicus. In words: Antiinflammatory activity against carrageenan-induced paw edema in albino rat at 100 mg/kg, po administered 30 mins before carrageenan challenge measured after 1 to 3 hrs.
Experiment [7] concerns Rattus norvegicus. In words: Antiinflammatory activity against carrageenan-induced paw edema in albino rat at 25 mg/kg, po administered 30 mins before carrageenan challenge measured after 1 to 3 hrs.

In the case of `O=C1c2ccncc2C(=O)N1Cc1ccncc1`, the “growth inhibition (GI)” value in experiment [1] amounted to 9%; in experiment [2] it was 12%; in experiment [3], 12%; in experiment [4] it was 20%. The same compound showed an Activity in experiment [5] of 33%.

On to `O=C1c2ccncc2C(=O)N1Cc1cccs1`, for which the “growth inhibition (GI)” value was 12% in experiment [1], 24% in experiment [2], 4% in experiment [3] and 53% in experiment [4]. In experiment [5], this compound registered an Activity of 35%.

Consider `O=C1c2nccnc2C(=O)N1CCN1CCCCC1`, for which the “growth inhibition (GI)” value in experiment [1] stood at 10%; in experiment [2] it was 12%; in experiment [3], 2%; in experiment [4] it was 9%. The same compound gave an Activity in experiment [5] of 16%.

With `O=C1c2nccnc2C(=O)N1Cc1ccccn1`, the “growth inhibition (GI)” value in experiment [1] amounted to 11%; in experiment [2] it was 16%; in experiment [3] it was 6%; in experiment [4], 33%. Also, in experiment [5], the Activity is given as 29%.

Turning to `O=C1Cc2ccccc2CC(=O)N1Cc1cccs1`, the “growth inhibition (GI)” value in experiment [1] was 1%; in experiment [2], 19%; in experiment [3], 4%; in experiment [4], 52%. In experiment [5], the Activity was found to be 34%.

For `CO[C@@]12[C@H](COC(N)=O)C3=C(C(=O)C(C)=C(N)C3=O)N1C[C@@H]1N[C@@H]12` [MITOMYCIN], the “growth inhibition (GI)” value in experiment [1] stood at 85%; in experiment [2] it was 60%; in experiment [3], 41%; in experiment [4], 29%.

Consider `O=c1[nH]cc(F)c(=O)[nH]1` [FLUOROURACIL], for which the “growth inhibition (GI)” value in experiment [1] is 56%; in experiment [2] it was 40%; in experiment [3], 25%; in experiment [4], 44%.

Take `O=C1c2ccncc2C(=O)N1Cc1ccccn1`: the “growth inhibition (GI)” value is on record as 10% in experiment [1], 24% in experiment [2], 4% in experiment [3] and 33% in experiment [4]. Besides, the Activity in experiment [5] stood at 27%.

For `O=C1Cc2ccccc2CC(=O)N1Cc1ccco1`, the “growth inhibition (GI)” value in experiment [1] is 11%; in experiment [2] it was 17%; in experiment [3] it was 10%; in experiment [4] it was 17%. This compound also returned an Activity in experiment [5] of 22%.

Take `O=C1c2ccncc2C(=O)N1Cc1ccco1`: the “growth inhibition (GI)” value in experiment [1] was determined as 0%; in experiment [2] it was 8%; in experiment [3] it was 0%; in experiment [4], 45%. The compound also showed an Activity in experiment [5] of 24%.

With `O=C1c2nccnc2C(=O)N1Cc1cccs1`, the “growth inhibition (GI)” value was found to be 12% in experiment [1], 16% in experiment [2], 7% in experiment [3] and 46% in experiment [4]. This compound also returned an Activity in experiment [5] of 31%.

On to `O=C1c2nc[nH]c2C(=O)N1Cc1ccncc1`, for which the “growth inhibition (GI)” value in experiment [1] came out at 1%; in experiment [2] it was 26%; in experiment [3], 3%; in experiment [4], 43%. This compound also returned an Activity in experiment [5] of 21%.

With `O=C1c2nccnc2C(=O)N1Cc1ccco1`, the “growth inhibition (GI)” value is listed as 15% in experiment [1], 11% in experiment [2], 7% in experiment [3] and 12% in experiment [4]. In addition, the Activity in experiment [5] was 0%.

On to `O=C1Cc2ccccc2CC(=O)N1CCN1CCCCC1`, for which the “growth inhibition (GI)” value is listed as 0% in experiment [1], 15% in experiment [2], 0% in experiment [3] and 45% in experiment [4]. In addition, the Activity in experiment [5] turned out to be 21%.

As for `O=C1Cc2ccccc2CC(=O)N1Cc1ccccn1`, the “growth inhibition (GI)” value is listed as 0% in experiment [1], 11% in experiment [2], 0% in experiment [3] and 37% in experiment [4]. Further, the Activity in experiment [5] is 32%.

For the compound `O=C1c2ccncc2C(=O)N1CCN1CCCCC1`, the “growth inhibition (GI)” value in experiment [1] stood at 13%; in experiment [2] it was 13%; in experiment [3], 1%; in experiment [4], 0%. For the same compound, the Activity in experiment [5] turned out to be 12%.

As to `CCCCC1C(=O)N(c2ccccc2)N(c2ccccc2)C1=O` [PHENYLBUTAZONE], the Activity was 63% in experiment [6], 37% in experiment [5] and 17% in experiment [7].

Turning to `O=C1c2nc[nH]c2C(=O)N1Cc1ccccn1`, the “growth inhibition (GI)” value in experiment [1] is recorded as 11%; in experiment [2], 17%; in experiment [3], 6%; in experiment [4], 33%. Moreover, the Activity in experiment [5] stood at 24%.

Take `O=C1c2nccnc2C(=O)N1Cc1ccncc1`: the “growth inhibition (GI)” value in experiment [1] was determined as 0%; in experiment [2] it was 11%; in experiment [3], 1%; in experiment [4] it was 36%. Further, the Activity in experiment [5] is reported as 32%.

Regarding `O=C1Cc2ccccc2CC(=O)N1Cc1cccnc1`, the Activity amounted to 67% in experiment [6], 40% in experiment [5] and 19% in experiment [7]. The “growth inhibition (GI)” value in experiment [1] worked out at 0%; in experiment [2] it was 6%; in experiment [3], 0%; in experiment [4], 22%.

On to `O=C1c2nc[nH]c2C(=O)N1CCN1CCCCC1`, for which the “growth inhibition (GI)” value in experiment [1] is recorded as 22%; in experiment [2], 18%; in experiment [3], 10%; in experiment [4], 17%. This compound yielded an Activity in experiment [5] of 0%.

Turning to `O=C1c2nc[nH]c2C(=O)N1Cc1cccs1`, the “growth inhibition (GI)” value in experiment [1] was 2%; in experiment [2] it was 15%; in experiment [3] it was 3%; in experiment [4], 23%. For the same compound, in experiment [5], the Activity was determined as 32%.
